According to US6004952A, “Micacocidin derivatives” (Shinogi & Co., Ltd., priority 1996, dated 1999):
Values after ≈ are worked out from the molar mass of the structure shown. Like-named read-outs stand apart in the source and are kept apart here.

How the values were obtained:
Eimeria tenella = test: Growth inhibition activities to avian coccidium in primary chicken kidney cells; assay type: cell-based; conditions: for minimal effective concentration: Eimeria tenella
Experimental: The kidneys of SPF new born chicken was sterilely removed, which was treated with trypsin and the resultant primary kidney cells were cultured in 24-well plate. Monolayer culture after cultured for 3 days was treated simultaneously with compounds adjusted to predetermined concentration and sporozoit obtained by artificial excystation, which was cultured a 40° C. Premature and mature schizonts were observed under microscope, and the growth inhibition activities (suppression rate) for each treatment group were calculated at a proportion of the number of schizonts for the sporozoit-inoculated, compound-untreated control group (100%).

M. pneumoniae = test: MIC, liquid dilution method, Mycoplasma pneumoniae; conditions: Mycoplasmoides pneumoniae
M. gallisepticum [1] = test: MIC, liquid dilution method, Mycoplasma gallisepticum; conditions: Mycoplasmoides gallisepticum
[2] = Cytotoxicity to primary chicken kidney culture cells; assay type: cell-based; conditions: primary chicken kidney cells
[3] = tested on: primary kidney culture cells; test: as above; assay type: cell-based; conditions: at the same concentration
M. hyopneumoniae = test: MIC, liquid dilution method, Mycoplasma hyopneumoniae; conditions: Mesomycoplasma hyopneumoniae
Candida albicans = test: Antifungal activity, micro-liquid dilution method, Candida albicans; assay type: cell-based, Candida albicans strain Ca-15; conditions: 30° C.; for Antifungal activities: IC50: 24 hours; for IC50: Candida albicans, 24 h, read-out: Antifungal activities: IC50
Experimental: (§1) Antifungal activities of the compounds to Candida albicans (strain Ca-15) and Asperilhm fumigatus (strain MA), representative pathogenic fungi, were determined by micro-liquid dilution method using 96-well microplates. A fungal suspension stored under freezing was adjusted to 1×1 O^5 CFU/ml by medium, of which 100 μl portions were charged into each well. The compound of the present invention was dissolved in dimethylsulfoxide (DMSO). Using the resultant solution, 2-fold dilution series were prepared together with the fungal suspension charged into the wells. YNB medium and RPMI medium were used. After cultured for 24 hours at 30° C., evaluation was performed by detecting the turbidity (wave length: 595 nm) using microplate reader.

Aspergillus fumigatus = test: Antifungal activity, micro-liquid dilution method, Aspergillus fumigatus; assay type: cell-based, Aspergillus fumigatus strain MA; conditions: 30° C.; for Antifungal activities: IC50: 24 hours; for IC50: Aspergillus fumigatus, 24 h, read-out: Antifungal activities: IC50
Experimental: as §1

E. avium = test: MIC, agar dilution method, E. avium; conditions: Enterococcus avium
M. gallisepticum [4] = test: In vivo evaluation test for M. gallisepticum in chickens (air-sac lesions); conditions: 6 chickens tested
Branhamella catarrhalis = test: MIC, Branhamella catarrhalis; assay type: cell-based; conditions: Moraxella catarrhalis; B. catarrhalis A 25238
Experimental: Thus, sensitivity-disc medium (Nissui) was used as a sensitivity determination medium, to which about 1 μl of 10^6 CFU/ml of the bacterial suspension was inoculated.

C. trachmatis = test: MIC, C. trachmatis; assay type: cell-based; conditions: C. trachmatis D/UW-3/CX
Serpulina hyodysenteriae = test: MIC, agar dilution method, anaerobic, Serpulina hyodysenteriae; assay type: cell-based, S. hyodysenteriae ATCC 27164; conditions: for MIC: Brachyspira hyodysenteriae, ATCC27164
mice spleen cells [5] = test: Suppression of reaction of mice spleen cells to lypopolysaccaride (LPS), in vitro (MTT); assay type: cell-based, BDF1 mice; conditions: for inhibition at 0.312 µg/mL: 312 ng/ml; for inhibition at 0.625 µg/mL: 625 ng/ml
Experimental: (§2) To each well of 96 well microtiter plate were added 5×10^5 spleen cells of BDF1 mice suspended in 0.1 ml of RPMI 1640 medium supplemented with 10% bovine fetus serum (supplemented with 2 mM sodium hydrogen carbonate, 50 Units/ml of penicillin, 50 μg/ml of streptomycin, and 5×10^-5 M of 2-mercaptoethanol), and then, 5 μg/ml of Concanavalin A (Con A) or 10 μg/ml of lypopolysaccaride (LPS) and various concentrations of test substance, of which final volume was adjusted to 0.2 ml. Test substances were dissolved in dimethylsulfoxide (DMSO), diluted with RPMI 1640 stated above, and added to the wells so that final concentration of the substances becomes less than 10000 ng/ml. The 96-well microtiter plates were cultured at 37° C. for 3 days in an incubator which was maintained at the humidity of 100%, 5% of carbon dioxide and 95% of air. After cultivation is completed, […] of 6 mg/ml solution of MTT {3-(4,5-dimethylthiazol-2yl)-2,5 diphenyltetrazoliumbromide} (Sigma) is added to each well, which is cultured at 37° C. for […] under the same conditions. After cultivation is completed, formazan formed is dissolved by adding 50 μl of a solution of 20% dodecyl sodium sulfonate (SDS) in 0.02N hydrochloric acid and kept standing at 37° C. for 24 hours. The absorbance (OD) of the formazan which was produced in proportion to the number of alive cells, was determined by using immunoreader equipped with 570 nm filter (see The Journal of Immunological Methods, Vol.65, 55-63, 1983).
(§3) Cell growth inhibition rate and IC50 value were calculated according to the correlation between the concentration and the absorbance for each substance.

Clostridium perfringens = test: microbe, parasite or virus in culture; assay type: cell-based, C. perfringens ATCC 13124; conditions: for MIC: Clostridium perfringens, ATCC13124
S. aureus = test: MIC, agar dilution method, S. aureus; assay type: cell-based; conditions: Staphylococcus aureus, FDA209P; S. aureus FDA 209P
mice spleen cells [6] = test: Suppression of reaction of mice spleen cells to Concanavalin A, in vitro (MTT); assay type: cell-based, BDF1 mice; conditions: for inhibition at 0.312 µg/mL: 312 ng/ml; for inhibition at 0.625 µg/mL: 625 ng/ml
Experimental: as §2, §3

Mycoplasma = test: MIC to Mycoplasmas (summary in words); assay type: cell-based
[7] = more than 80% of suppression rate regarded as effective, read-out: Effective dose (growth inhibition)
[8] = read-out: Concentrations showing growth inhibition effects
[9] = Mus musculus, 72 h, LPS, read-out: Suppression rate
[10] = Mus musculus, 72 h, Con A, read-out: Suppression rate

Row | SMILES | growth inhibition activities (Eimeria tenella) | minimal effective concentration (Eimeria tenella; [7]) | minimal effective concentration (Eimeria tenella; [8]) | MIC (M. pneumoniae) | MIC (M. gallisepticum [1]) | MCC [2] | cytotoxicity to the primary kidney culture cells [3] | MIC (M. hyopneumoniae) | activity to Serpulina (Treponema) hyodysenteriae (Serpulina hyodysenteriae) | MIC (Serpulina hyodysenteriae) | suppression of the reaction to LPS of spleen cells (mice spleen cells [5]) | inhibition at 0.312 µg/mL (mice spleen cells [5]; [9]) | inhibition at 0.625 µg/mL (mice spleen cells [5]; [9]) | IC50 (mice spleen cells [5]; Mus musculus, LPS) | activity to Clostridium perflingens (Clostridium perfringens) | MIC (Clostridium perfringens) | suppression of the reaction to Con A of spleen cells (mice spleen cells [6]) | inhibition at 0.312 µg/mL (mice spleen cells [6]; [10]) | inhibition at 0.625 µg/mL (mice spleen cells [6]; [10]) | IC50 (mice spleen cells [6]; Mus musculus, Con A) | also measured
1 | CCCCCc1cccc(O)c1C1=NC(C2SCC(C(OCOC)C(C)(C)C3=NC(C)(C(=O)OCOC)CS3)N2C)CS1 (stereo not drawn) [Compound 19] | strong growth inhibition activities | 0.156 µg/mL | 156 µg/mL | 0.39 mg/L (≈ 0.596 µM) | 6.25 mg/L (≈ 9.56 µM) | 10 µg/mL | did not show any cytotoxicity | 1.56 mg/L (≈ 2.39 µM) | – | – | – | – | – | – | – | – | – | – | – | – | –
2 | CCCCCc1cccc(O)c1C1=NC(C2SCC(C(O)C(C)(C)C3=NC(C)(C(=O)O)CS3)N2C)CS1 (stereo not drawn) [Compound 9] | – | – | – | 0.00625 mg/L (≈ 0.011 µM) | 0.2 mg/L (≈ 0.353 µM) | – | – | 0.025 mg/L (≈ 0.0442 µM) | – | – | – | – | – | – | – | – | – | – | – | – | Antifungal activities: IC50 (Candida albicans; RPMI medium): 1.6 mg/L; Antifungal activities: IC50 (Candida albicans; YNB medium): 6.3 mg/L; Antifungal activities: IC50 (Aspergillus fumigatus; RPMI medium): 0.2 mg/L; Antifungal activities: IC50 (Aspergillus fumigatus; YNB medium): 3.2 mg/L; MIC (E. avium): 1.56 mg/L (≈ 2.76 µM); air-sac lesions (the number of chickens): (+) slight (M. gallisepticum [4]; 25 mg/kg × 1, orally): 0; air-sac lesions (the number of chickens): (++-+++) moderate to severe (M. gallisepticum [4]; 25 mg/kg × 1, orally): 2; air-sac lesions (the number of chickens): (-) non (M. gallisepticum [4]; 25 mg/kg × 1, orally): 4; number of chickens having lesions (M. gallisepticum [4]; 25 mg/kg × 1, orally): 2; air-sac lesions (the number of chickens): (+) slight (M. gallisepticum [4]; 50 mg/kg × 1, orally): 1; air-sac lesions (the number of chickens): (++-+++) moderate to severe (M. gallisepticum [4]; 50 mg/kg × 1, orally): 1; air-sac lesions (the number of chickens): (-) non (M. gallisepticum [4]; 50 mg/kg × 1, orally): 4; number of chickens having lesions (M. gallisepticum [4]; 50 mg/kg × 1, orally): 2; air-sac lesions (the number of chickens): (+) slight (M. gallisepticum [4]; 100 mg/kg × 1, orally): 0; air-sac lesions (the number of chickens): (++-+++) moderate to severe (M. gallisepticum [4]; 100 mg/kg × 1, orally): 1; air-sac lesions (the number of chickens): (-) non (M. gallisepticum [4]; 100 mg/kg × 1, orally): 5; number of chickens having lesions (M. gallisepticum [4]; 100 mg/kg × 1, orally): 1; MIC (Branhamella catarrhalis): 3.13 mg/L (≈ 5.53 µM); MIC (C. trachmatis): 16 mg/L (≈ 28.3 µM)
3 | CCCCCc1cccc(OC)c1C1=NC(C2SCC(C(O)C(C)(C)C3=NC(C)(C(=O)O)CS3)N2C)CS1 (stereo not drawn) [Compound 7] | strong growth inhibition activities | 0.156 µg/mL | 156 µg/mL | 0.1 mg/L (≈ 0.172 µM) | 1.56 mg/L (≈ 2.69 µM) | 10 µg/mL | did not show any cytotoxicity | 0.1 mg/L (≈ 0.172 µM) | showed the activity | 1.56 mg/L (≈ 2.69 µM) | suppressed | 98.6% | 102% | 0.084 mg/L (≈ 0.145 µM) | showed the activity | 0.1 mg/L (≈ 0.172 µM) | suppressed | 98% | 101% | 0.129 mg/L (≈ 0.222 µM) | inhibition at 0.039 µg/mL (mice spleen cells [5]; Mus musculus, 72 h, LPS, 39 ng/ml, read-out: Suppression rate): 17.2%; inhibition at 0.078 µg/mL (mice spleen cells [5]; Mus musculus, 72 h, LPS, 78 ng/ml, read-out: Suppression rate): 42.5%; inhibition at 0.156 µg/mL (mice spleen cells [5]; Mus musculus, 72 h, LPS, 156 ng/ml, read-out: Suppression rate): 80%; MIC (S. aureus): 1.56 mg/L (≈ 2.69 µM); inhibition at 0.039 µg/mL (mice spleen cells [6]; Mus musculus, 72 h, Con A, 39 ng/ml, read-out: Suppression rate): 10%; inhibition at 0.078 µg/mL (mice spleen cells [6]; Mus musculus, 72 h, Con A, 78 ng/ml, read-out: Suppression rate): 16.5%; inhibition at 0.156 µg/mL (mice spleen cells [6]; Mus musculus, 72 h, Con A, 156 ng/ml, read-out: Suppression rate): 60.7%; MICs to Mycoplasmas (Mycoplasma): low MICs
4 | CCCCCc1cccc(O)c1C1=NC(C2SCC(C(O)C(C)(C)C3=NC(C)(C(=O)OCOC)CS3)N2C)CS1 (stereo not drawn) [Compound 20] | – | 0.625 µg/mL | – | ≤ 0.00625 mg/L | 0.1 mg/L (≈ 0.164 µM) | > 10 µg/mL | – | 0.025 mg/L (≈ 0.041 µM) | showed the activity | 1.56 mg/L (≈ 2.56 µM) | suppressed | 2.1% | 98.8% | 0.38 mg/L (≈ 0.623 µM) | showed the activity | 3.13 mg/L (≈ 5.13 µM) | suppressed | 0% | 102% | 0.506 mg/L (≈ 0.83 µM) | IC50 (Candida albicans; RPMI medium): 3.2 mg/L (≈ 5.25 µM); IC50 (Candida albicans; YNB medium): > 100 mg/L; inhibition at 1.25 µg/mL (mice spleen cells [5]; Mus musculus, 72 h, LPS, 1250 ng/ml, read-out: Suppression rate): 98.2%; inhibition at 2.5 µg/mL (mice spleen cells [5]; Mus musculus, 72 h, LPS, 2500 ng/ml, read-out: Suppression rate): 96.3%; IC50 (Aspergillus fumigatus; RPMI medium): > 100 mg/L; IC50 (Aspergillus fumigatus; YNB medium): > 100 mg/L; inhibition at 1.25 µg/mL (mice spleen cells [6]; Mus musculus, 72 h, Con A, 1250 ng/ml, read-out: Suppression rate): 101%; inhibition at 2.5 µg/mL (mice spleen cells [6]; Mus musculus, 72 h, Con A, 2500 ng/ml, read-out: Suppression rate): 101%; MICs to Mycoplasmas (Mycoplasma): low MICs
